Assay results as given in US11826358B2, “Locally-induced adipose tissue browning by microneedle patch for obesity treatment” (NORTH CAROLINA STATE UNIVERSITY, priority 2017, dated 2023).

Tests used:
PgKO-PPARγ1 = assay: Adipogenesis in PgKO-PPARγ1 MEF adipocyte model (aP2, Perilipin Q-PCR); type: cell-based, mouse
3T3-L1 adipocytes = assay: Browning in fully differentiated 3T3-L1 adipocytes (Q-PCR); type: cell-based
Excerpt: To validate the efficiency of Rosi NPs, an in vitro adipocyte model PgKO-PPARγ1 was used in which the reconstitution of a shorter form of PPARγ (γ1) in Ppar^−/− mouse embryonic fibroblast (MEF) rescues adipocyte differentiation only in the presence of exogenous Thiazolidinedione class of ligand (e.g. Rosi). […] In addition to adipogenic potential, the browning capacity of Rosi NPs was also compared. In fully differentiated 3T3-L1 adipocytes, Rosi NPs behaved the same as nude Rosi to up-regulate brown adipocyte markers Elovl3 and Cidea as well as to repress white adipocyte genes Resistin and Adipsin (FIG. 2g). Therefore, the disclosed nanoparticalization strategy can sustain a constant release of Rosi at physiological levels of glucose without affecting its efficiency.
RNA was extracted from tissues or cells by combining TriZol reagent and NucleoSpin RNA kit with DNase I digestion (Macherey-Nagel), following the manufacturer's instructions. 1 μg total RNA was used to synthesize cDNA by using the High-capacity cDNA Reverse Transcription kit (Applied Biosystems). Quantitative real-time PCR (Q-PCR) were performed on a Bio-Rad CFX96 Real-Time PCR platform by using the GoTaq qPCR Master Mix (Promega). Relative gene expressions were calculated by using ΔΔCt method with Cyclophilin A (cultured cells) or RPL23 (tissues) as the reference gene.

## CN(CCOc1ccc(CC2SC(=O)NC2=O)cc1)c1ccccn1 (racemic) [nude Rosi, (RS)-5-[4-(2-[methyl(pyridin-2-yl)amino]ethoxy)benzyl]thiazolidine-2,4-dione]
PgKO-PPARγ1
  adipocyte formation (induction of aP2 and Perilipin): induce adipocyte formation
3T3-L1 adipocytes
  brown adipocyte markers Elovl3 and Cidea expression: up-regulate
  white adipocyte genes Resistin and Adipsin expression: repress
